Molecules are shown by their SMILES. Active and inactive are the calls of the source. How the calls were made is not given here.

The data set concerns CCRIS mutagenicity, Ames/micronucleus/aberration tests. The data set is described as follows: CCRIS mutagenicity studies.
[1] abbreviates: Test System: AMES SALMONELLA TYPHIMURIUM, Strain/Indicator: TA100, Metabolic Activation: NONE, Method: PREINCUBATION

With `COc1ccc([C@H]2O[C@H]2C)cc1`, the mutagenic call is, setting by setting: (Test System: AMES SALMONELLA TYPHIMURIUM, Strain/Indicator: TA98, Metabolic Activation: NONE, Method: PREINCUBATION) “inactive; negative”; under setting [1], “active; positive”; (Test System: AMES SALMONELLA TYPHIMURIUM, Strain/Indicator: TA1535, Metabolic Activation: NONE, Method: PREINCUBATION) “active; positive”.
For the compound `Cc1cccc(C2CO2)c1` (stereo unspecified), the mutagenic call (Test System: E. COLI, Strain/Indicator: WP2 UVRA, Metabolic Activation: NONE, Method: STANDARD PLATE) is “active; positive”.
Consider `II`, for which, for the setting “End Point: IN VITRO CHROMOSOMAL ABERRATIONS, Test System: SYRIAN HAMSTER EMBRYO (SHE) CELLS, Metabolic Activation: NONE”, the mutagenic call was “active; positive (structural changes)”.
Consider `COC(=O)[C@@H](C)Cl`, for which the mutagenic call reads like this: under setting [1], “active; positive”; (Test System: AMES SALMONELLA TYPHIMURIUM, Strain/Indicator: TA100, Metabolic Activation: RAT, LIVER, S-9, PCB, Method: PREINCUBATION) “active; positive”.
For `O=C1C=Cc2ccc3c4c(ccc1c24)C=CC3=O`, the mutagenic call reads like this: (Test System: AMES SALMONELLA TYPHIMURIUM, Strain/Indicator: TA97, Metabolic Activation: NONE, Method: STANDARD PLATE) “active; positive”; (Test System: AMES SALMONELLA TYPHIMURIUM, Strain/Indicator: TA97, Metabolic Activation: RAT, LIVER, S-9, PCB, Method: STANDARD PLATE) “active; positive”; (Test System: AMES SALMONELLA TYPHIMURIUM, Strain/Indicator: TA98, Metabolic Activation: NONE, Method: STANDARD PLATE) “inactive; negative”; (Test System: AMES SALMONELLA TYPHIMURIUM, Strain/Indicator: TA98, Metabolic Activation: RAT, LIVER, S-9, PCB, Method: STANDARD PLATE) “inactive; negative”; (Test System: AMES SALMONELLA TYPHIMURIUM, Strain/Indicator: TA100, Metabolic Activation: NONE, Method: STANDARD PLATE) “inactive; negative”; (Test System: AMES SALMONELLA TYPHIMURIUM, Strain/Indicator: TA100, Metabolic Activation: RAT, LIVER, S-9, PCB, Method: STANDARD PLATE) “inactive; negative”.
In the case of `CSc1ccc([N+](=O)[O-])cc1[N+](=O)[O-]`, the mutagenic call is “active; positive” (Test System: AMES SALMONELLA TYPHIMURIUM, Strain/Indicator: TA100(NR), Metabolic Activation: NONE, Method: PREINCUBATION); “active; positive” (Test System: AMES SALMONELLA TYPHIMURIUM, Strain/Indicator: TA100/GSH-, Metabolic Activation: NONE, Method: PREINCUBATION); “active; positive” under setting [1].
For `CCCCCN(N=O)C(N)=O`, the mutagenic call (Test System: E. COLI B, Strain/Indicator: H/R30R, Metabolic Activation: NONE) was “active; positive” and the mutagenic call (Test System: E. COLI B, Strain/Indicator: HS30R, Metabolic Activation: NONE) is “active; positive”.
For `CC(=O)Nc1ccc(N/N=C2/C(=O)c3ccc(NC(=O)Nc4ccc5c(c4)C=C(S(=O)(=O)O)/C(=N/Nc4ccccc4)C5=O)cc3C=C2S(=O)(=O)O)cc1`, where the note is “Test System: Ames Salmonella typhimurium, Strain/Indicator: TA98, Metabolic Activation: None, Method: Preincubation”, the mutagenic call is “active; positive”.
Regarding `OC1C=Cc2c(cc3ccc4cccc5ccc2c3c45)C1O` (stereo unspecified), the mutagenic call (Test System: CHINESE HAMSTER V-79, Strain/Indicator: V-79/OUABAIN, Metabolic Activation: HAMSTER, EMBRYO, CELL-MEDIATED, Method: STANDARD PLATE) is “active; positive”.
For the compound `CCCCN(N=O)C(=O)OCC`, the mutagenic call is, setting by setting: (Test System: AMES SALMONELLA TYPHIMURIUM, Strain/Indicator: TA98, Metabolic Activation: RAT, LIVER, S-9, KC500 OR PHENOBARBITAL, Method: LIQUID SUSPENSION) “active; positive”; (Test System: AMES SALMONELLA TYPHIMURIUM, Strain/Indicator: TA100, Metabolic Activation: RAT, LIVER, S-9, KC500 OR PHENOBARBITAL, Method: LIQUID SUSPENSION) “active; positive”.
As to `O=P(O)(OCC(Br)CBr)OCC(Br)CBr` (stereo unspecified), the mutagenic call runs as follows: (Test System: AMES SALMONELLA TYPHIMURIUM, Strain/Indicator: TA100, Metabolic Activation: RAT, LIVER, S-9, AROCLOR 1254, Method: STANDARD PLATE) “active; positive”; (Test System: AMES SALMONELLA TYPHIMURIUM, Strain/Indicator: TA1535, Metabolic Activation: RAT, LIVER, S-9, AROCLOR 1254, Method: STANDARD PLATE) “active; positive”.
Regarding `O=C1CC(O)C(O)c2ccc3c4c(ccc3c21)CCC4` (stereo unspecified), the mutagenic call is “inactive; negative” (Test System: AMES SALMONELLA TYPHIMURIUM, Strain/Indicator: TA100, Metabolic Activation: RAT, LIVER, MICROSOMES, 15,16-DIHYDROCYCLOPENTA[A]PHENANTHREN-17-ONE, Method: STANDARD PLATE); “active; positive” (Test System: AMES SALMONELLA TYPHIMURIUM, Strain/Indicator: TA100, Metabolic Activation: RAT, LIVER, MICROSOMES, AROCLOR 1254, Method: STANDARD PLATE); “active; positive” (Test System: AMES SALMONELLA TYPHIMURIUM, Strain/Indicator: TA100, Metabolic Activation: RAT, LIVER, MICROSOMES, BENZO[A]PYRENE, Method: STANDARD PLATE); “inactive; negative” (Test System: AMES SALMONELLA TYPHIMURIUM, Strain/Indicator: TA100, Metabolic Activation: RAT, LIVER, MICROSOMES, CLOFIBRATE, Method: STANDARD PLATE); “inactive; negative” (Test System: AMES SALMONELLA TYPHIMURIUM, Strain/Indicator: TA100, Metabolic Activation: RAT, LIVER, MICROSOMES, DEXAMETHASONE, Method: STANDARD PLATE); “inactive; negative” (Test System: AMES SALMONELLA TYPHIMURIUM, Strain/Indicator: TA100, Metabolic Activation: RAT, LIVER, MICROSOMES, ISONIAZID, Method: STANDARD PLATE). Also, the mutagenic call (Test System: AMES SALMONELLA TYPHIMURIUM, Strain/Indicator: TA100, Metabolic Activation: RAT, LIVER, MICROSOMES, PHENOBARBITONE, Method: STANDARD PLATE) was “inactive; negative”.
